Our source for the concentration in supernatant and 10014 levels values is patent publication US5349127A, “Expression of herbicide metabolizing cytochromes P450” (priority 1992, dated 1994).

Data set [1] concerns S. lividans pCAO200SU1-FeS-B#9. In words: Sulfonylurea metabolism by washed cell suspension (Examples 6-9). It counts as in vitro ADME, Streptomyces lividans. The settings on record: substrate 10010. The method, then: Herbicides and their metabolites are measured by HPLC as described by Romesser et al., BBRC 140: 650-659 (1986), herein incorporated by reference, except that 0.1% H3 PO4 is used in both solvents. Chromatographic identity and quantitation of the herbicides and their resulting metabolites is determined by comparing them chromatographically with authentic standard compounds. Identity of the resulting metabolites is also confirmed by UV spectroscopy.
A 100 ml culture of S. griseolus ATCC 11796 in sporulation broth and a 50 ml culture of S. lividans transformed with pCAO400 in YEME broth were prepared and incubated for 24 hours as described. At that time, the S. griseolus culture was split into two 50 ml aliquots into two separate flasks and 25 ml of fresh sporulation broth was added to each and 9 mg of […] was added to one of these cultures to induce cytochrome P450SU1 expression. Fresh YEME broth (25 ml) was added to the S. lividans culture. After an additional 6 hours growth at 30° C., the cells in each culture were harvested as described above, washed twice with MOPS (50 mM, pH 7.2) and recentrifuged. The cell pellets were resuspended in four cell volumes of MOPS (50 mM, pH 7.2) containing 0.2% glucose and about 100 μg/ml of 10004. These cell suspensions were incubated at 30° C. with shaking and aliqouts were taken at 2 and 5.5 hours. The supernatant of each aliquot was analyzed by HPLC and the concentrations of the sulfonylurea compound 10004 and its metabolite 10005 were determined.
S. lividans transformed respectively with pCAO200SU1-FeS-B#9, pCAO200SU#112and pCAO200 were cultured for 36 hours in 400 ml of YEME broth at 30° C. S. griseolus ATCC 11796 was similarly cultured in 400 ml of sporulation broth. Six hours before harvesting the cells, 150 ml of fresh YEME broth was added to the S. lividans cells, and the S. griseolus cells were split into two 200 ml cultures with 100 ml of fresh sporulation broth added to each. 10001 (36 mg) was added to one of the two S. griseolus cultures to induce cytochrome P450SU1. […]

For data set [2], the system named is S. lividans pCAO200. The description is as above. The note with it: substrate 10010. The format is in vitro ADME, Streptomyces lividans.
Data set [3] concerns S. lividans pCAO200SU1#12. Described as above. It counts as in vitro ADME, Streptomyces lividans. The settings on record: substrate 10010. The method, then:
Herbicides and their metabolites are measured by HPLC as described by Romesser et al., BBRC 140: 650-659 (1986), herein incorporated by reference, except that 0.1% H3 PO4 is used in both solvents. Chromatographic identity and quantitation of the herbicides and their resulting metabolites is determined by comparing them chromatographically with authentic standard compounds. Identity of the resulting metabolites is also confirmed by UV spectroscopy. […]
S. lividans transformed respectively with pCAO200SU1-FeS-B#9, pCAO200SU#112and pCAO200 were cultured for 36 hours in 400 ml of YEME broth at 30° C. S. griseolus ATCC 11796 was similarly cultured in 400 ml of sporulation broth. Six hours before harvesting the cells, 150 ml of fresh YEME broth was added to the S. lividans cells, and the S. griseolus cells were split into two 200 ml cultures with 100 ml of fresh sporulation broth added to each. 10001 (36 mg) was added to one of the two S. griseolus cultures to induce cytochrome P450SU1. The cells were prepared as described above in Example 5 and the concentrations of the sulfonylurea compound 10006 and its metabolites 10007, 10008 or 10009 were determined.

Data set [4] deals with leaves of transformed tobacco. In words: Metabolism of 10015 to 10014 in excised tobacco leaves (Example 20). The format is in vitro ADME, Nicotiana tabacum. As to the method:
Plants were grown from tobacco seed produced by self-pollinated transformed plants in Metro-Mix® 350 under 16 hour light (light intensity of 400 μEinsteins per second per square meter at pot level, 22° C. and 80% relative humidity) followed by 8 hours of dark (18° C. and 70 to 80% relative humidity) and watered three times daily with half strength Hoagland's solution. The presence of the cytochrome P450 protein in individual plants was confirmed by Western blot analysis before testing for sulfonylurea metabolism.
During growth, the tobacco plants produced leaves attached to the main stalk, none of which were of the same age or size. Removal of leaves attached to the main stalk of each plant forced the growth of lateral shoots which in turn produced the many leaves of similar size and age needed for the experiments. The leaves were excised under water with a scalpel. These leaves were transferred to cups with the uptake solution (20 ppm sulfonylurea in 1 mM potassium phosphate buffer, pH 7.0) and allowed to take up the solution through the cut leaf base for 2 hours in the light (200 μEinsteins per second per sq. meter) at 22° C. and 86% relative humidity. At the end of the uptake period, sample leaves were either frozen in liquid nitrogen and stored at -20° C. (designated '0 hour post-uptake samples') or transferred to cups with phosphate buffer alone for an additional 5 hours of incubation in the light before freezing (designated 5 hour post-uptake samples'). In the 10001 experiments some leaves were incubated for 21 hours post-uptake under continuous light (200 μEinsteins per second per square meter, 22° C., and 63% relative humidity).
Individual leaves were extracted with 30 ml acetone/water (80%/20% by volume) for 1 minute in a Sorvall® Omni-Mixer. The brei was centrifuged to remove the tissue debris. Acetone in the supernatant was removed under a stream of nitrogen. The resulting aqueous extract was acidified to pH 2 to 3 with sulfuric acid and then extracted three times with methylene chloride. The combined methylene chloride extracts were reduced to dryness by rotary evaporation at 30° to 40° C. The dry residue was dissolved in acetone for transfer to a vial. Once transferred the acetone was removed by evaporation under a stream of nitrogen. Before HPLC analysis the dry sample was redissolved in 1.0 ml of acetonitrile/water (25%/75%). HPLC separations were carried out on a Zorbax® ODS column (4.6 mm×250 man) at 45° C. with a flow rate of 1.4 ml per minute. […] 10015 and its metabolites were detected at 254 nm while ^14 C-10001 and its metabolites were detected with a Radiomatic Flo-One® detector. A diode array detector was used in separate experiments to obtain the absorbance spectra of the 10015 metabolite and an 10014 standard in the HPLC analysis of several extracts (HPLC method is described in Romesser et al., Biochem. Biophys. Res. Comm., 140:650-659 (1986)). Comparison of the metabolite absorbance spectrum with that of the 10014 confirmed the metabolite's identity.

`COC(=O)c1ccccc1S(=O)(=O)NC(=O)Nc1nc(C)cc(C(=O)O)n1` [compound 10012, N-[(4-carboxy-6-methylpyrimidin-2yl)aminocarbonyl]-2-methoxycarbonylbenzenesulfonamide]: the concentration in supernatant in data set [1] (2 h) came out at 2 µM; in data set [1] (4 h), 12 µM; in data set [1] (6 h) it was 20 µM; in data set [2] (2 h) it was 0 nM; in data set [2] (4 h), 0 nM; in data set [2] (6 h) it was 0 nM. For the same compound, the concentration in supernatant in data set [3] (2 h), in data set [3] (4 h) and in data set [3] (6 h) was 0 nM throughout.
Turning to `COc1cc(OC)nc(NC(=O)NS(=O)(=O)c2cccc3c2S(=O)(=O)NC3)n1` [compound 10014, 2,3-dihydro-N-[(4,6-dimethoxypyrimidin-yl)aminocarbonyl]-1,2-benzisothiazol-7-sulfonamide-1,1-dioxide], the 10014 levels in data set [4] (AGS112 (control, no P450SU1), 0 hour post-uptake) came out at 0 μg/leaf; in data set [4] (AGS112 (control, no P450SU1), 5 hour post-uptake), 0 μg/leaf; in data set [4] (Cab-SU131.5 (chloroplast directed), 0 hour post-uptake), 1.3 μg/leaf; in data set [4] (Cab-SU131.5 (chloroplast directed), 5 hour post-uptake) it was 2.9 μg/leaf; in data set [4] (SSU-SU111.5 (chloroplast directed), 0 hour post-uptake), 2.1 μg/leaf; in data set [4] (SSU-SU111.5 (chloroplast directed), 5 hour post-uptake), 1.8 μg/leaf. In addition, the 10014 levels in data set [4] (SSU-SU121.3 (chloroplast directed), 0 hour post-uptake) is listed as 1.2 μg/leaf; in data set [4] (SSU-SU121.3 (chloroplast directed), 5 hour post-uptake), 1.7 μg/leaf; in data set [4] (SU18.15 (cytoplasm directed), 0 hour post-uptake), 0 μg/leaf; in data set [4] (SU18.15 (cytoplasm directed), 5 hour post-uptake), 0 μg/leaf; in data set [4] (SU18.8 (cytoplasm directed), 0 hour post-uptake), 0 μg/leaf; in data set [4] (SU18.8 (cytoplasm directed), 5 hour post-uptake), 0 μg/leaf. Besides, the 10014 levels came to 0 μg/leaf in data set [4] (W38, 20 ppm 10015 uptake 2 h, 0 hour post-uptake) and 0 μg/leaf in data set [4] (W38, 20 ppm 10015 uptake 2 h, 5 hour post-uptake).
